Reference: patent US20100144853A1, “NOVEL COMBINED ADMINISTRATION” (priority 2008, published 2010)

Experiments:
Assay type in all cases: in vitro ADME
[1] = Stability of COMPOUND A in human intestinal fluids, Procedure D (in solution), fasted; details: fasted intestinal fluid
Description: Procedure D (COMPOUND A and COMPOUND B in Solution):
(§1) Fasted Intestinal Fluids: the fluids from 4 different subjects were collected with a naso-jejunal tube after fasting overnight and pooled.
5 mg of thioisobutyric acid S-(2-{[1-(2-ethyl-butyl)-cyclohexanecarbonyl]-amino}-phenyl)ester (COMPOUND A) were dissolved in 50 μL ethanol and 950 μL mixed micelles solution containing Soybean lecithin/Sodium glycocholate (158/97 mg/mL) in water were added.
3 mg of 1-(3-hexyl-4-oxo-oxetan-2-yl)tridecan-2-yl 2-formyl-amino-4-methyl-pentanoate (COMPOUND B) were dissolved in 1 mL of ethanol. 100 μL of this solution was diluted with 900 μL of FeSSIF concentrate (10×).
100 μL of drug solution (stock D) were mixed with 100 μL of esterase inhibitor solution (stock E) and 800 μL of pro-FaSSIF were added.
100 μL of premix (stock F) were mixed with 200 μL of drug solution (stock A).
200 μL of premix (stock F) were mixed with 100 μL of drug solution (stock A). 315 μL of intestinal fluids (fasted and stimulated) were pre-heated at 37° C. for about 5 min. At time zero, 35 μL of premix solutions were added, i.e. either stock A, stock G, stock H or stock F, to obtain 50 μg/mL of COMPOUND A and final concentrations of COMPOUND B of 0, 1, 2 or 3 μg/mL. The samples were incubated at 37° C. while gently stirring. The reaction was stopped after 2 min or after 10 min by dilution of 1 part of the reaction mixture with 3 parts of isopropanol and the resulting mixture was centrifuged for 5 min at 5′000 rpm. The supernatant was analyzed by HPLC.

[2] = Stability of COMPOUND A in human intestinal fluids, Procedure E (suspension, excess separated by centrifugation), fasted; details: HIF-fasted
Description: as §1
(§2) Procedure E (COMPOUND A and COMPOUND B in Suspension, Excess Compound Separated by Centrifugation):
(§3) Stock J=COMPOUND B suspension (2 mg/mL)
(§4) 100 μL of FeSSIF concentrate and 900 μL of pro-FeSSIF pH6.5 were added to 4 mg commercially available Orlistat formulation (Xenical®) containing 2 mg of lipase inhibitor 1-(3-hexyl-4-oxo-oxetan-2-yl)tridecan-2-yl 2-formyl-amino-4-methyl-pentanoate (COMPOUND B) in a vial and the formulation was dispersed by gently stirring during 15 min to obtain a fine homogenous suspension.
(§5) 500 μL of freshly thawed intestinal fluids (fasted and stimulated state) were added to 1 mg of COMPOUND A in a 1 mL glass vial immediately followed by the addition of either 0, 10 or 20 μL of COMPOUND B suspension (stock J) corresponding to 0, 40 or 80 μg/mL of COMPOUND B. The amount of COMPOUND B was 0, 2% or 4% COMPOUND B relative to COMPOUND A. The mixture was incubated at 37° C. with gentle stirring. Samples of 90 μL were removed as function of time and centrifuged at 13′000 rpm (about 12′000×g) for 5 min. 50 μL of the supernatant was diluted with 150 μL isopropanol, centrifuged at 5′000 rpm for 5 min and the clear supernatant was analyzed by HPLC.

[3] = Stability of COMPOUND A in human intestinal fluids, Procedure E (suspension, excess separated by centrifugation), stimulated; details: HIF-stimulated
Description: Stimulated Intestinal Fluids: the fluids from 3 different subjects were collected after fasting overnight with a nasojejunal tube and pooled. For the stimulation, twenty minutes before the beginning of the collection, volunteers were provided with chewing-gums and were asked to chew over a 15 minutes period, maintaining the taste by replacing the sticks of gum approximately every 2 minutes.
as §2, §3, §4, §5

Lipase from Hog Pancreas = assay: Stability of COMPOUND A with Lipase, Procedure B' (as B, lower COMPOUND B concentrations); details: after 10 min incubation, 0.55 mg/mL (11 U/mL) Lipase
Description: 100 μL of drug solution (stock A) were mixed with 0, 12, 25 or 50 μL esterase inhibitor solution (stock B) and 100, 88, 75 or 50 μL of FeSSIF concentrate (Lecithin37.5 mM and Sodium taurocholate 150 mM) were added to make up 200 μL of a solution with COMPOUND B concentrations of 0, 12, 25 or 50 μg/mL. At time zero, 800 μL of Lipase in phosphate buffered saline solution (from stock C to obtain final enzyme concentrations of 0.55 mg/mL) were added. The reaction mixture was incubated at 37° C. and stopped after 10 minutes by diluting one part of the reaction mixture with 3 parts Isopropanol.
Procedure B′ (Premix of COMPOUND B and COMPOUND A, Followed by Addition of Lipase):
The tests were repeated as described under procedure B but with final COMPOUND B concentrations of 0, 3, 6, 12 μg/ml.

[4] = with 40 μg/mL of COMPOUND B, 15 min
[5] = with 40 μg/mL of COMPOUND B, 30 min
[6] = with 40 μg/mL of COMPOUND B, 1 h
[7] = with 40 μg/mL of COMPOUND B, 2 h
[8] = with 40 μg/mL of COMPOUND B, 4 h
[9] = with 80 μg/mL of COMPOUND B, 15 min
[10] = with 80 μg/mL of COMPOUND B, 30 min
[11] = with 80 μg/mL of COMPOUND B, 1 h
[12] = with 80 μg/mL of COMPOUND B, 2 h
[13] = with 80 μg/mL of COMPOUND B, 4 h

Concentration of COMPOUND A ([1]; COMPOUND B 0 μg/mL, 2 min, theoretical 50 μg/mL): 480 ng/mL
Concentration of COMPOUND A ([1]; COMPOUND B 0 μg/mL, 10 min): 480 ng/mL
Concentration of COMPOUND A ([1]; COMPOUND B 1 μg/mL, 2 min): 18000 ng/mL
Concentration of COMPOUND A ([1]; COMPOUND B 1 μg/mL, 10 min): 1580 ng/mL
Concentration of COMPOUND A ([1]; COMPOUND B 2 μg/mL, 2 min): 36910 ng/mL
Concentration of COMPOUND A ([1]; COMPOUND B 2 μg/mL, 10 min): 28590 ng/mL
Concentration of COMPOUND A ([1]; COMPOUND B 3 μg/mL, 2 min): 43720 ng/mL
Concentration of COMPOUND A ([1]; COMPOUND B 3 μg/mL, 10 min): 37240 ng/mL
Concentration of COMPOUND A [2, 4]: 1120 ng/mL
Concentration of COMPOUND A [2, 5]: 11750 ng/mL
Concentration of COMPOUND A [2, 6]: 111050 ng/mL
Concentration of COMPOUND A [2, 7]: 217350 ng/mL
Concentration of COMPOUND A [2, 8]: 281660 ng/mL
Concentration of COMPOUND A [2, 9]: 5620 ng/mL
Concentration of COMPOUND A [2, 10]: 16360 ng/mL
Concentration of COMPOUND A [2, 11]: 89600 ng/mL
Concentration of COMPOUND A [2, 12]: 230340 ng/mL
Concentration of COMPOUND A [2, 13]: 336000 ng/mL
Concentration of COMPOUND A ([2]; without COMPOUND B, 15 min): 1620 ng/mL
Concentration of COMPOUND A ([2]; without COMPOUND B, 30 min): 1860 ng/mL
Concentration of COMPOUND A ([2]; without COMPOUND B, 1 h): 490 ng/mL
Concentration of COMPOUND A ([2]; without COMPOUND B, 2 h): 490 ng/mL
Concentration of COMPOUND A ([2]; without COMPOUND B, 4 h): 490 ng/mL
Concentration of COMPOUND A [3, 4]: 740 ng/mL
Concentration of COMPOUND A [3, 5]: 550 ng/mL
Concentration of COMPOUND A [3, 6]: 10530 ng/mL
Concentration of COMPOUND A [3, 7]: 32710 ng/mL
Concentration of COMPOUND A [3, 8]: 221310 ng/mL
Concentration of COMPOUND A [3, 9]: 1000 ng/mL
Concentration of COMPOUND A [3, 10]: 11800 ng/mL
Concentration of COMPOUND A [3, 11]: 64630 ng/mL
Concentration of COMPOUND A [3, 12]: 131640 ng/mL
Concentration of COMPOUND A [3, 13]: 171250 ng/mL
Concentration of COMPOUND A ([3]; without COMPOUND B, 15 min): 3090 ng/mL
Concentration of COMPOUND A ([3]; without COMPOUND B, 30 min): 520 ng/mL
Concentration of COMPOUND A ([3]; without COMPOUND B, 1 h): 620 ng/mL
Concentration of COMPOUND A ([3]; without COMPOUND B, 2 h): 820 ng/mL
Concentration of COMPOUND A ([3]; without COMPOUND B, 4 h): 1310 ng/mL
Concentration of COMPOUND A (Lipase from Hog Pancreas; COMPOUND B 0 μg/ml): 14200 ng/mL
Concentration of COMPOUND A (Lipase from Hog Pancreas; COMPOUND B 3 μg/ml): 45900 ng/mL
Concentration of COMPOUND A (Lipase from Hog Pancreas; COMPOUND B 6 μg/ml): 46500 ng/mL
Concentration of COMPOUND A (Lipase from Hog Pancreas; COMPOUND B 12 μg/ml): 45700 ng/mL
SMILES: CCC(CC)CC1(C(=O)Nc2ccccc2SC(=O)C(C)C)CCCCC1 [COMPOUND A, thioisobutyric acid S-(2-{[1-(2-ethyl-butyl)-cyclohexanecarbonyl]-amino}-phenyl)ester]
